Patent US20050176115A1, “Process for the production of methionine” (Nippon Soda Co., Ltd., priority 2002, published 2005)
Where two headings read alike, the source gives them in different places.

Columns and labels:
[1] = ammonia present at an excessive amount in mole ratio to methionine; 5-50° C.; FIG. 1
Description: About 20 wt % of methionine also can be dissolved in water by addition of inorganic alkali such as NaOH and KOH, while in this case it is required to neutralize with the use of acid to obtain a product in the form of salt-free solid of methionine, leading to a problem that an additional operation to remove a lot of inorganic salt waste generated from the neutralization is required.

[2] = by addition of inorganic alkali such as NaOH and KOH
[3] = cited from earlier work

Compound: CSCC[C@H](N)C(=O)O (racemic) [methionine]
- solubility of methionine [1]: increases
- amount of methionine that can be dissolved in water [2]: About 20 wt %
- water solubility ([3]; at 25° C.): 3.38 g/100 g·H2O
- water solubility ([3]; at 50° C.): 6.07 g/100 g·H2O
